The text below walks through data of ChEMBL document CHEMBL1130584, “Synthesis of boronic acid analogs of L-arginine as alternate substrates or inhibitors of nitric oxide synthase” (Bioorg Med Chem Lett, 1998).

Molecules are shown by their SMILES.

The target in one assay is Nitric oxide synthase 1 (Homo sapiens, UniProt P29475). Put plainly: Compound was tested for inhibitory activity against neuronal nitric oxide synthase.
Assay [1] concerns the target T1, Nitric oxide synthase, inducible (Homo sapiens, UniProt P35228). Put plainly: Compound was tested for inhibitory activity against inducible nitric oxide synthase using L-arginine as substrate.
The target in assay [2] is T1, Nitric oxide synthase, inducible. Put plainly: Compound was tested for inhibitory activity against inducible nitric oxide synthase.

T1 sequence (P35228 whole entry): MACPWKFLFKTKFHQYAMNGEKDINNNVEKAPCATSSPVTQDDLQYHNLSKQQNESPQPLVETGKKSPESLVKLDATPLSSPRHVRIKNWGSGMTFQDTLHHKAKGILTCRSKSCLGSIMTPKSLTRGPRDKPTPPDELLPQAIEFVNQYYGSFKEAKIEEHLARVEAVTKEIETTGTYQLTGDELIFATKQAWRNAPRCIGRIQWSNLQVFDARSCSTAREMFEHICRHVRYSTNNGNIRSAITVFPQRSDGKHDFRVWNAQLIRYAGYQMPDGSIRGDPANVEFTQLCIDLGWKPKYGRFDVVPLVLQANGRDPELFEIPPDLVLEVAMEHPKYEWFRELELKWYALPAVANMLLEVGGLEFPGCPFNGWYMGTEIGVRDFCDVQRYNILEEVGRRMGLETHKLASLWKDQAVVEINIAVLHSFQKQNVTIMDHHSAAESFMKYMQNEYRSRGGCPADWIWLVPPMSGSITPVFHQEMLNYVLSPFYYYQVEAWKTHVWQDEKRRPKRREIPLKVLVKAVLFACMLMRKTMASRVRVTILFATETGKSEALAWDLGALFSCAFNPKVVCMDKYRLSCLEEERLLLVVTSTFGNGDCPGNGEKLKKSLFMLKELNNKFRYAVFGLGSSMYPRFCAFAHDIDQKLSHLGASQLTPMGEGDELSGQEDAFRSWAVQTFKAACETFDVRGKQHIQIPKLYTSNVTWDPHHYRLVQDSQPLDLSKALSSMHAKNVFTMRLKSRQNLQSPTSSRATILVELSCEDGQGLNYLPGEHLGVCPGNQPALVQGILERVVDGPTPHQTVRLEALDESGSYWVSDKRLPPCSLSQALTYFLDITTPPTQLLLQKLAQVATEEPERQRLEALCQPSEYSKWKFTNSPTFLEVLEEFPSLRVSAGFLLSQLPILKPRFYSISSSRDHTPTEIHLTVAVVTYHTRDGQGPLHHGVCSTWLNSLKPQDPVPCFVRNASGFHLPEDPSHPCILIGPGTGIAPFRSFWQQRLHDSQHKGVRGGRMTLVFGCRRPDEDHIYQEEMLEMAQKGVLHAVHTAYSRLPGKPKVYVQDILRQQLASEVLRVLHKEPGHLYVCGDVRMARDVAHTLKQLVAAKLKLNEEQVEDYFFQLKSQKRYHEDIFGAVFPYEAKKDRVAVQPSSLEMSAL
Sequence of Nitric oxide synthase 1 (P29475 whole entry): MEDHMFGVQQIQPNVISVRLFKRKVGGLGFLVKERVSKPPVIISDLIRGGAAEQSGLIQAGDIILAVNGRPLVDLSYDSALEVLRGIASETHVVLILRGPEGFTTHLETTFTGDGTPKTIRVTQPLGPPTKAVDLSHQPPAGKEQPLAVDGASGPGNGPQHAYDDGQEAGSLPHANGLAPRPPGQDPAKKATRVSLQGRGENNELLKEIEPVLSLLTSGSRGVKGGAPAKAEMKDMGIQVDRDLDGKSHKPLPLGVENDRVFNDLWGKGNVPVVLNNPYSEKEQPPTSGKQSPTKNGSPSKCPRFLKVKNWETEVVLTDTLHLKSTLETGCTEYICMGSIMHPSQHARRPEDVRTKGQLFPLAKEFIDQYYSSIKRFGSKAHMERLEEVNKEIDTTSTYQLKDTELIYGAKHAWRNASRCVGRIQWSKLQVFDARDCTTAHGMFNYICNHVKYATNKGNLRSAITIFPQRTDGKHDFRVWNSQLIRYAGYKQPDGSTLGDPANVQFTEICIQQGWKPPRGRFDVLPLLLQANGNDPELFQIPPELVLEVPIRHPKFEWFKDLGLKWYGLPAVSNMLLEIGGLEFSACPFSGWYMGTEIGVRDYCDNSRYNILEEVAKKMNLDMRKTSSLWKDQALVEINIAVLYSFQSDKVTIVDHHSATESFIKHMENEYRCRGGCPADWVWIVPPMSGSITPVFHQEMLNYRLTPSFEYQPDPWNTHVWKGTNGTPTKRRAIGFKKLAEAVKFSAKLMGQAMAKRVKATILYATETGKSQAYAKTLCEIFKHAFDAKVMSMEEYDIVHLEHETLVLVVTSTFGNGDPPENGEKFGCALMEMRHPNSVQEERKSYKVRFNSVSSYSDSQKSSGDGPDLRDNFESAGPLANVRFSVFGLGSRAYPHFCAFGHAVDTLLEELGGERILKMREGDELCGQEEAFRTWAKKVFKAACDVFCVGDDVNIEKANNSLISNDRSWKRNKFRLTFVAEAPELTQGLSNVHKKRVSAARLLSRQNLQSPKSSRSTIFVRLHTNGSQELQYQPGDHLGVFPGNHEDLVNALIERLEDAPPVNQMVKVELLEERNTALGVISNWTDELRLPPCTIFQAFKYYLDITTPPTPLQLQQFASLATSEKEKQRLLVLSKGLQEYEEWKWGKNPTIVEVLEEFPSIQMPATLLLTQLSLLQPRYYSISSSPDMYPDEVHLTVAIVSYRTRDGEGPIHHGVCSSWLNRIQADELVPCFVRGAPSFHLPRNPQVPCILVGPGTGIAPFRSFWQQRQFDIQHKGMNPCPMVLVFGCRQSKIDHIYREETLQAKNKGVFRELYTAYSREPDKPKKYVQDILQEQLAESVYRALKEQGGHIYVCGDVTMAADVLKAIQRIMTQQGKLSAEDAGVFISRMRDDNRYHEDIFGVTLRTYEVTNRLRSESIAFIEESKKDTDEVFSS

As a reminder, the IC50 is the midpoint of a concentration-inhibition curve. A higher IC50 goes with lower potency. `NC(N)=NCCC[C@H](N)B(O)O`: the results for the IC50 (at Nitric oxide synthase 1; in assay [2]) were 300 µM and 50 µM, respectively. Moreover, in assay [1], the Ks was determined as 200 µM.
As for `CC(=O)N[C@@H](CCCN=C(N)N)B(O)O`, the half-inhibitory concentration (IC50) (at Nitric oxide synthase 1; in assay [2]) was more than 500 µM each time.
